Assay results reported in the NIST ThermoML archive (doi:10.1021/je060472e).
Values joined by “and” are separate entries in the source; they are usually repeats but may differ in a detail not shown here. Identical values can stand only once. Numbers after ± are expanded uncertainties.

Key:
[1] = for vapor or sublimation pressure: Closed cell (Static) method; for Normal melting temperature: DTA
[2] = Molar enthalpy of transition or fusion; conditions: Crystal; DSC

For `COC(=O)c1cccnc1` [3-pyridinecarboxylic acid methyl ester], the “vapor or sublimation pressure” value ([1]; 273.23 K, Crystal) was 0.000651 ± 9.6e-05 kPa and 0.000658 ± 9.6e-05 kPa, the “vapor or sublimation pressure” value ([1]; 278.2 K, Crystal) was 0.001228 ± 0.00011 kPa and 0.001214 ± 0.00011 kPa and the “vapor or sublimation pressure” value ([1]; 283.18 K, Crystal) was 0.002269 ± 0.00013 kPa. The “vapor or sublimation pressure” value ([1]; 283.19 K, Crystal) was 0.002282 ± 0.00013 kPa and 0.002271 ± 0.00013 kPa, the “vapor or sublimation pressure” value ([1]; 288.16 K, Crystal) was 0.00406 ± 0.00019 kPa and 0.004076 ± 0.00019 kPa and the “vapor or sublimation pressure” value ([1]; 293.16 K, Crystal) was 0.007304 ± 0.0003 kPa and 0.007318 ± 0.0003 kPa. The “vapor or sublimation pressure” value ([1]; 298.14 K, Crystal) was 0.0127 ± 0.00051 kPa, the “vapor or sublimation pressure” value ([1]; 298.14 K, Liquid) was 0.01819 ± 0.00059 kPa and the “vapor or sublimation pressure” value ([1]; 298.15 K, Liquid) was 0.01819 ± 0.00059 kPa. For the same molecule, the “vapor or sublimation pressure” value ([1]; 298.16 K, Crystal) was 0.01269 ± 0.00051 kPa, the “vapor or sublimation pressure” value ([1]; 303.13 K, Liquid) was 0.02715 ± 0.00073 kPa and 0.02712 ± 0.00073 kPa and the “vapor or sublimation pressure” value ([1]; 303.14 K, Crystal) was 0.0216 ± 0.00065 kPa and 0.02159 ± 0.00065 kPa. The “vapor or sublimation pressure” value ([1]; 305.12 K, Liquid) was 0.03186 ± 0.0008 kPa, the “vapor or sublimation pressure” value ([1]; 305.13 K, Liquid) was 0.03188 ± 0.0008 kPa and the “vapor or sublimation pressure” value ([1]; 307.11 K, Liquid) was 0.03712 ± 0.00088 kPa and 0.03709 ± 0.00088 kPa. For the same molecule, the “vapor or sublimation pressure” value ([1]; 308.1 K, Crystal) was 0.03586 ± 0.00087 kPa, the “vapor or sublimation pressure” value ([1]; 308.11 K, Crystal) was 0.03587 ± 0.00087 kPa and the “vapor or sublimation pressure” value ([1]; 309.1 K, Liquid) was 0.0431 ± 0.00098 kPa and 0.04306 ± 0.00098 kPa. The “vapor or sublimation pressure” value ([1]; 310.6 K, Crystal) was 0.04566 ± 0.001 kPa, the “vapor or sublimation pressure” value ([1]; 310.61 K, Crystal) was 0.04595 ± 0.001 kPa and 0.04557 ± 0.001 kPa and the “vapor or sublimation pressure” value ([1]; 311.07 K, Liquid) was 0.0502 ± 0.0011 kPa. The “vapor or sublimation pressure” value ([1]; 311.08 K, Liquid) was 0.05006 ± 0.0011 kPa, the “vapor or sublimation pressure” value ([1]; 313.07 K, Liquid) was 0.05817 ± 0.0012 kPa and the “vapor or sublimation pressure” value ([1]; 313.08 K, Liquid) was 0.05817 ± 0.0012 kPa. For the same molecule, the “vapor or sublimation pressure” value ([1]; 315.06 K, Liquid) was 0.06722 ± 0.0014 kPa, the “vapor or sublimation pressure” value ([1]; 315.07 K, Liquid) was 0.06704 ± 0.0014 kPa and the “vapor or sublimation pressure” value ([1]; 317.04 K, Liquid) was 0.07707 ± 0.0015 kPa. The “vapor or sublimation pressure” value ([1]; 317.05 K, Liquid) was 0.07715 ± 0.0015 kPa, the “vapor or sublimation pressure” value ([1]; 318.08 K, Liquid) was 0.08317 ± 0.0016 kPa and the “vapor or sublimation pressure” value ([1]; 318.11 K, Liquid) was 0.0833 ± 0.0016 kPa. For the same molecule, the “vapor or sublimation pressure” value ([1]; 319.09 K, Liquid) was 0.08886 ± 0.0017 kPa, the “vapor or sublimation pressure” value ([1]; 321.08 K, Liquid) was 0.102 ± 0.0019 kPa and 0.103 ± 0.0019 kPa and the “vapor or sublimation pressure” value ([1]; 323.09 K, Liquid) was 0.1177 ± 0.0021 kPa. For the same molecule, the “vapor or sublimation pressure” value ([1]; 324.06 K, Liquid) was 0.1247 ± 0.0022 kPa and 0.1246 ± 0.0022 kPa, the Normal melting temperature ([1]; Crystal) was 39.5 ± 0.4 °C and the “Molar enthalpy of transition or fusion” value [2] was 4.61 ± 0.167 kcal/mol.
With `COC(=O)c1ccccn1` [methyl 2-pyridinecarboxylate] the “vapor or sublimation pressure” value ([1]; 273.21 K, Liquid) was 0.00051 ± 9.4e-05 kPa and 0.000505 ± 9.4e-05 kPa, the “vapor or sublimation pressure” value ([1]; 278.18 K, Liquid) was 0.00086 ± 0.0001 kPa and 0.000856 ± 0.0001 kPa and the “vapor or sublimation pressure” value ([1]; 278.2 K, Crystal) was 0.000582 ± 9.6e-05 kPa and 0.00058 ± 9.6e-05 kPa. For the same molecule, the “vapor or sublimation pressure” value ([1]; 280.67 K, Crystal) was 0.000793 ± 0.0001 kPa, the “vapor or sublimation pressure” value ([1]; 280.68 K, Crystal) was 0.000794 ± 0.0001 kPa and the “vapor or sublimation pressure” value ([1]; 283.15 K, Crystal) was 0.001087 ± 0.00011 kPa. For the same molecule, the “vapor or sublimation pressure” value ([1]; 283.15 K, Liquid) was 0.001403 ± 0.00011 kPa, the “vapor or sublimation pressure” value ([1]; 283.16 K, Crystal) was 0.001086 ± 0.00011 kPa and the “vapor or sublimation pressure” value ([1]; 283.16 K, Liquid) was 0.001399 ± 0.00011 kPa. For the same molecule, the “vapor or sublimation pressure” value ([1]; 285.65 K, Crystal) was 0.001476 ± 0.00011 kPa and 0.001472 ± 0.00011 kPa, the “vapor or sublimation pressure” value ([1]; 288.13 K, Liquid) was 0.002242 ± 0.00013 kPa and the “vapor or sublimation pressure” value ([1]; 288.14 K, Crystal) was 0.001988 ± 0.00013 kPa. For the same molecule, the “vapor or sublimation pressure” value ([1]; 288.14 K, Liquid) was 0.002246 ± 0.00013 kPa, the “vapor or sublimation pressure” value ([1]; 288.15 K, Crystal) was 0.001989 ± 0.00013 kPa and the “vapor or sublimation pressure” value ([1]; 290.63 K, Crystal) was 0.002681 ± 0.00015 kPa. The “vapor or sublimation pressure” value ([1]; 290.65 K, Crystal) was 0.002682 ± 0.00015 kPa, the “vapor or sublimation pressure” value ([1]; 293.12 K, Liquid) was 0.00357 ± 0.00017 kPa and the “vapor or sublimation pressure” value ([1]; 293.13 K, Liquid) was 0.003566 ± 0.00017 kPa. The “vapor or sublimation pressure” value ([1]; 298.15 K, Liquid) was 0.005628 ± 0.00024 kPa and 0.005601 ± 0.00024 kPa, the “vapor or sublimation pressure” value ([1]; 303.15 K, Liquid) was 0.008522 ± 0.00035 kPa and 0.008506 ± 0.00035 kPa and the “vapor or sublimation pressure” value ([1]; 308.08 K, Liquid) was 0.0128 ± 0.00051 kPa. The “vapor or sublimation pressure” value ([1]; 308.11 K, Liquid) was 0.01279 ± 0.00051 kPa, the “vapor or sublimation pressure” value ([1]; 313.12 K, Liquid) was 0.01919 ± 0.00061 kPa and the “vapor or sublimation pressure” value ([1]; 313.13 K, Liquid) was 0.01916 ± 0.00061 kPa. For the same molecule, the “vapor or sublimation pressure” value ([1]; 318.09 K, Liquid) was 0.02771 ± 0.00074 kPa and 0.02763 ± 0.00074 kPa, the “vapor or sublimation pressure” value ([1]; 323.05 K, Liquid) was 0.03968 ± 0.00092 kPa and the “vapor or sublimation pressure” value ([1]; 328.04 K, Liquid) was 0.05628 ± 0.0012 kPa and 0.05632 ± 0.0012 kPa. The “vapor or sublimation pressure” value ([1]; 333.01 K, Liquid) was 0.0787 ± 0.0015 kPa, the “vapor or sublimation pressure” value ([1]; 333.02 K, Liquid) was 0.07876 ± 0.0015 kPa and the “vapor or sublimation pressure” value ([1]; 337.99 K, Liquid) was 0.1088 ± 0.002 kPa. For the same molecule, the “vapor or sublimation pressure” value ([1]; 340.47 K, Liquid) was 0.127 ± 0.0023 kPa, the Normal melting temperature ([1]; Crystal) was 16.1 ± 0.5 °C and the “Molar enthalpy of transition or fusion” value [2] was 4.02 ± 0.0956 kcal/mol.
With `COC(=O)c1ccncc1` [methyl 4-pyridinecarboxylate] the “vapor or sublimation pressure” value ([1]; 273.26 K, Liquid) was 0.002588 ± 0.00014 kPa, the “vapor or sublimation pressure” value ([1]; 275.74 K, Liquid) was 0.003349 ± 0.00016 kPa and 0.003323 ± 0.00016 kPa and the “vapor or sublimation pressure” value ([1]; 278.22 K, Liquid) was 0.004243 ± 0.00019 kPa. For the same molecule, the “vapor or sublimation pressure” value ([1]; 278.23 K, Liquid) was 0.004253 ± 0.00019 kPa, the “vapor or sublimation pressure” value ([1]; 280.71 K, Liquid) was 0.005373 ± 0.00023 kPa and 0.005383 ± 0.00023 kPa and the “vapor or sublimation pressure” value ([1]; 283.19 K, Liquid) was 0.006753 ± 0.00028 kPa. The “vapor or sublimation pressure” value ([1]; 285.66 K, Liquid) was 0.008443 ± 0.00034 kPa, the “vapor or sublimation pressure” value ([1]; 288.16 K, Liquid) was 0.01054 ± 0.00042 kPa and the “vapor or sublimation pressure” value ([1]; 290.65 K, Liquid) was 0.01308 ± 0.00051 kPa. For the same molecule, the “vapor or sublimation pressure” value ([1]; 293.15 K, Liquid) was 0.01615 ± 0.00056 kPa, the “vapor or sublimation pressure” value ([1]; 293.16 K, Liquid) was 0.01617 ± 0.00056 kPa and the “vapor or sublimation pressure” value ([1]; 295.65 K, Liquid) was 0.0199 ± 0.00062 kPa. For the same molecule, the “vapor or sublimation pressure” value ([1]; 298.13 K, Liquid) was 0.02427 ± 0.00069 kPa, the “vapor or sublimation pressure” value ([1]; 298.14 K, Liquid) was 0.02428 ± 0.00069 kPa and the “vapor or sublimation pressure” value ([1]; 300.63 K, Liquid) was 0.0296 ± 0.00077 kPa and 0.02961 ± 0.00077 kPa. The “vapor or sublimation pressure” value ([1]; 303.12 K, Liquid) was 0.03595 ± 0.00087 kPa, the “vapor or sublimation pressure” value ([1]; 303.13 K, Liquid) was 0.03597 ± 0.00087 kPa and the “vapor or sublimation pressure” value ([1]; 305.62 K, Liquid) was 0.04347 ± 0.00098 kPa. For the same molecule, the “vapor or sublimation pressure” value ([1]; 305.63 K, Liquid) was 0.04348 ± 0.00098 kPa, the “vapor or sublimation pressure” value ([1]; 308.09 K, Liquid) was 0.05219 ± 0.0011 kPa and the “vapor or sublimation pressure” value ([1]; 310.59 K, Liquid) was 0.06266 ± 0.0013 kPa. The “vapor or sublimation pressure” value ([1]; 310.6 K, Liquid) was 0.0627 ± 0.0013 kPa, the “vapor or sublimation pressure” value ([1]; 313.07 K, Liquid) was 0.07495 ± 0.0015 kPa and 0.0749 ± 0.0015 kPa and the “vapor or sublimation pressure” value ([1]; 315.54 K, Liquid) was 0.08924 ± 0.0017 kPa. The “vapor or sublimation pressure” value ([1]; 315.56 K, Liquid) was 0.08934 ± 0.0017 kPa, the “vapor or sublimation pressure” value ([1]; 318.03 K, Liquid) was 0.1062 ± 0.002 kPa and the “vapor or sublimation pressure” value ([1]; 320.52 K, Liquid) was 0.1256 ± 0.0023 kPa. For the same molecule, the Normal melting temperature ([1]; Crystal) was 10.2 ± 0.9 °C and the “Molar enthalpy of transition or fusion” value [2] was 3.49 ± 0.167 kcal/mol.
